Test results: paper PMC4727781, “Tanzawaic Acids, a Chemically Novel Set of Bacterial Conjugation Inhibitors” (PLoS ONE, 2016)
Read-outs that look alike come from different tables or passages of the source.

How the values were obtained:
[1] = tested on: lung carcinoma cells A549; assay: cell culture cytotoxicity assay, A549; format: cell-based; conditions: Homo sapiens, mean of three independent experiments, read-out: Toxic-IC50 A549
Procedure: (§1) Cell culture cytotoxicity assays were performed as described using human foreskin fibroblasts ATCC SCRC-1041 [38], lung carcinoma cells A549 [39], colorectal carcinoma cells HCT-116 [40], pancreatic adenocarcinoma cells PNS1 [41] or glioblastoma multiforme cells T98G [42]. Antibacterial activity was determined using a conventional microtiter broth-dilution technique for two reference strains, S. aureus CECT 794 and M. smegmatis DSMZ 43756. Antifungal activity was measured using the reference method antifungal broth dilution susceptibility test (National Committee for Clinical Laboratory Standars) against two species: A. nidulans (Microorganisms Collection of Biomar Microbial Technologies) and C. albicans CECT 1394.

[2] = tested on: PSN1 pancreatic adenocarcinoma cells; assay: cell culture cytotoxicity assay, PSN1; format: cell-based; conditions: Homo sapiens, mean of three independent experiments, read-out: Toxic-IC50 PSN1
Procedure: as §1

S. aureus CECT 794 = assay: antibacterial activity, microtiter broth-dilution, S. aureus; format: cell-based; conditions: Staphylococcus aureus, CECT794, mean of three independent experiments, read-out: Toxic-IC90 Saur
Procedure: as §1

[3] = tested on: glioblastoma multiforme cells T98G; assay: cell culture cytotoxicity assay, T98G; format: cell-based; conditions: Homo sapiens, mean of three independent experiments, read-out: Toxic-IC50 T98G
Procedure: as §1

M. smegmatis DSMZ 43756 = assay: antibacterial activity, microtiter broth-dilution, M. smegmatis; format: cell-based, Mycobacterium smegmatis; conditions: Mycolicibacterium smegmatis, DSMZ43756, mean of three independent experiments, read-out: Toxic-IC90 Msme
Procedure: as §1

A. nidulans = assay: antifungal broth dilution susceptibility test, A. nidulans; format: cell-based; conditions: Aspergillus nidulans, mean of three independent experiments, read-out: Toxic-IC90 Anid
Procedure: as §1

C. albicans CECT 1394 = assay: antifungal broth dilution susceptibility test, C. albicans; format: cell-based; conditions: Candida albicans, CECT1394, mean of three independent experiments, read-out: Toxic-IC90 Calb
Procedure: as §1

[4] = tested on: colorectal carcinoma cells HCT-116; assay: cell culture cytotoxicity assay, HCT-116; format: cell-based; conditions: Homo sapiens, mean of three independent experiments, read-out: Toxic-IC50 HCT-116
Procedure: as §1

[5] = tested on: human foreskin fibroblasts ATCC SCRC-1041; assay: cell culture cytotoxicity assay, fibroblasts; format: cell-based; conditions: Fibroblast, mean of three independent experiments, read-out: Toxic-IC50 Fibroblasts
Procedure: as §1

[6] = tested on: R388 conjugation (R388 derivative pJC01); design: method as in PMID 26330514; conditions: read-out: COIN-IC50; cited from earlier work
[7] = tested on: IncW plasmid R388 (derivative pSU2007::Tnlux) conjugation; conditions: COIN threshold; cited from earlier work
[8] = tested on: bacterial and fungal strains; assay: antibacterial and antifungal activities (summary statement); format: cell-based; conditions: summary of Table 1; read-out: toxic-IC90 values, antibacterial and antifungal activities
Procedure: as §1

[9] = tested on: superoxide anion production; conditions: cited from earlier work
Phytophthora infestans = conditions: at comparable concentrations; cited from earlier work
[10] = tested on: IncW plasmid R388 conjugation; assay: plate-conjugation assay, R388; format: cell-based, E. coli; conditions: for COIN activity on R388 conjugation (CF): 1 mM
Procedure: (§2) For the plate-mating procedure, a 200 μl mixture of equal volumes of donor and recipient cultures previously washed, both in stationary phase, was centrifuged and resuspended in 15 μl LB-broth. 5 μl of this mixture were placed on top of 96-well microtiter plate wells containing 150 μl LB-agar (± COINs) and conjugation was allowed to proceed, in general, for 1 h at 37°C. The temperature-sensitive IncH plasmid drR27 was allowed to conjugate for 2 h at 25°C [35]. Bacteria were then resuspended in 150 μl M9 broth and corresponding dilutions were plated on selective media. CF was calculated as the number of transconjugant cells per donor, whereas MF was calculated as the number of cells receiving the mobilizable plasmid per donor. Since this type of frequency data were log-normally distributed, means are calculated using decimal logarithms of data.

Botrytis cinerea = tested on: Botrytis cinerea; design: method as in PMID 24605144; conditions: at comparable concentrations; cited from earlier work
[11] = tested on: R388 conjugation (R388 derivative pJC01); assay: fluorescence-based HTC assay; format: cell-based, E. coli; conditions: for IC50: Escherichia coli, read-out: COIN-IC50
Paecilomyces variotii = tested on: Paecilomyces variotii; design: method as in PMID 24605144; conditions: at a concentration of 185 μM; cited from earlier work
Brevibacillus brevis = tested on: Brevibacillus brevis; design: method as in PMID 24605144; conditions: at a concentration of 185 μM; cited from earlier work
Magnaporthe oryzae = conditions: read-out: toxic-IC50, inhibition of conidial germination; cited from earlier work
HeLaS3 cells = tested on: HeLaS3 cells; design: method as in PMID 24605144; conditions: at a concentration of 185 μM; cited from earlier work
Mucor miehei = tested on: Mucor miehei; design: method as in PMID 24605144; conditions: at a concentration of 185 μM; cited from earlier work
IncP plasmid conjugation = assay: plate-conjugation assay, IncP plasmids; format: cell-based, E. coli; conditions: 0.4 mM
Procedure: as §2

IncN plasmid conjugation = assay: plate-conjugation assay, IncN plasmids; format: cell-based, E. coli; conditions: 0.4 mM
Procedure: as §2

Enterococcus faecalis = tested on: Enterococcus faecalis; design: method as in PMID 26055397; conditions: cited from earlier work
Proteus mirabilis = tested on: Proteus mirabilis; design: method as in PMID 26055397; conditions: cited from earlier work
K562 = tested on: K562; design: method as in PMID 26055397; conditions: at 100 μM; cited from earlier work
mobilization of RSF1010 = assay: mobilization by plate-conjugation assay, RSF1010; format: cell-based, E. coli; conditions: 0.4 mM; helper plasmid pRL443
Procedure: as §2

Raji = tested on: Raji; design: method as in PMID 26055397; conditions: at 100 μM; cited from earlier work
Bacillus cereus = tested on: Bacillus cereus; design: method as in PMID 26055397; conditions: cited from earlier work
mobilization of ColE1 = assay: mobilization by plate-conjugation assay, ColE1; format: cell-based, E. coli; conditions: 0.4 mM
Procedure: as §2

U937 = tested on: U937; design: method as in PMID 26055397; conditions: at 100 μM; cited from earlier work
C. albicans = tested on: C. albicans; design: method as in PMID 26055397; conditions: cited from earlier work
mobilization of CloDF13 = assay: mobilization by plate-conjugation assay, CloDF13; format: cell-based, E. coli; conditions: 0.4 mM; helper plasmid R388, pOX38 or R100-1
Procedure: as §2

[12] = tested on: IncFII plasmid R100-1 conjugation; assay: plate-conjugation assay, R100-1; format: cell-based, E. coli; conditions: 0.4 mM
Procedure: as §2

Klebsiella pneumoniae = tested on: Klebsiella pneumoniae; design: method as in PMID 26055397; conditions: cited from earlier work
Jurkat = tested on: Jurkat; design: method as in PMID 26055397; conditions: at 100 μM; cited from earlier work

For `CCCCCCCCCCCCCC#CC(=O)O` [2-HDA, 2-hexadecynoic acid], the IC50 [1] was 40 µM, the IC50 [2] was 80 µM and the IC90 (S. aureus CECT 794) was 30 µM. For the same compound, the IC50 [3] was 100 µM, the IC90 (M. smegmatis DSMZ 43756) was 8 µM and the IC90 (A. nidulans) was 8 µM. For the same compound, the IC90 (C. albicans CECT 1394) was less than 4 µM, the IC50 [4] was 40 µM and the IC50 [5] was 100 µM. For the same compound, the IC50 [6] was roughly 50 µM.
For `CCCCCCCCCCCCCCCC#CC(=O)O` [2-ODA, 2-octadecynoic acid], the IC50 [1] was 90 µM, the IC50 [2] was 180 µM and the IC90 (S. aureus CECT 794) was 350 µM. It also gave an IC50 [3] of 150 µM, an IC90 (M. smegmatis DSMZ 43756) of 7 µM and an IC90 (A. nidulans) of 220 µM. The IC90 (C. albicans CECT 1394) was 220 µM, the IC50 [4] was 70 µM and the IC50 [5] was 90 µM. The IC50 [6] was roughly 50 µM.
`CCCCC/C=C\C/C=C\CCCCCCCC(=O)O` [Linoleic acid] showed an IC50 [1] of 90 µM, an IC50 [2] of 90 µM and an IC90 (S. aureus CECT 794) greater than 360 µM. For the same compound, the IC50 [3] was 180 µM, the IC90 (M. smegmatis DSMZ 43756) was 360 µM and the IC90 (A. nidulans) was greater than 360 µM. It also gave an IC90 (C. albicans CECT 1394) greater than 360 µM, an IC50 [4] of 180 µM and an IC50 [5] of 300 µM. For the same compound, the IC50 [7] was roughly 50 µM and the IC90 [8] was greater than 100 µM.
`CCCCCCCC/C=C\CCCCCCCC(=O)O` [Oleic acid] gave an IC50 [1] of 40 µM, an IC50 [2] of 80 µM and an IC90 (S. aureus CECT 794) greater than 420 µM. The IC50 [3] was 180 µM, the IC90 (M. smegmatis DSMZ 43756) was greater than 420 µM and the IC90 (A. nidulans) was greater than 220 µM. It also gave an IC90 (C. albicans CECT 1394) greater than 220 µM, an IC50 [4] of 180 µM and an IC50 [5] of 350 µM. For the same compound, the IC50 [7] was roughly 50 µM and the IC90 [8] was greater than 100 µM.
In the case of `Cc1ccc2c(c1/C=C/C=C/C(=O)O)C(C)CC(C)C2` (centres unmarked) [TZA-A, tanzawaic acid A], the IC50 [1] is given as 60 µM, the IC50 [2] is given as 90 µM and the “inhibition of superoxide anion production” value [9] is given as “inhibitors of superoxide anion production”. For the same compound, the IC90 (S. aureus CECT 794) was 230 µM, the IC50 [3] was 90 µM and the IC90 (M. smegmatis DSMZ 43756) was 230 µM. For the same compound, the IC90 (A. nidulans) was greater than 230 µM, the IC90 (C. albicans CECT 1394) was greater than 230 µM and the “effect on germination of Phytophthora infestans” value (Phytophthora infestans) was “not affected”. The IC50 [4] was 70 µM, the “COIN activity on R388 conjugation (CF)” value ([10]; plate-conjugation assay) was “inhibited R388 conjugation to levels similar to TZA-B” and the “effect on germination of Botrytis cinerea” value (Botrytis cinerea) was “not affected”. For the same compound, the IC50 [5] was 190 µM, the IC50 [11] was roughly 50 µM and the “activity against Paecilomyces variotii” value (Paecilomyces variotii) was “weak activity”. For the same compound, the “activity against Brevibacillus brevis” value (Brevibacillus brevis) was “weak activity”, the IC50 (Magnaporthe oryzae) was 37 µM and the “activity against HeLaS3 cells” value (HeLaS3 cells) was “weak activity”. The IC90 [8] was greater than 100 µM and the “activity against Mucor miehei” value (Mucor miehei) was “weak activity”.
In the case of `CC1CC(C)C2C(C=CC(C)C2C=CC=CC(=O)O)C1` (centres unmarked) [TZA-B, tanzawaic acid B], the effect on conjugation (IncP plasmid conjugation) is listed as “not affected”, the effect on conjugation (IncN plasmid conjugation) is listed as “not affected” and the “antimicrobial activity, concentration below which no effect” value (Enterococcus faecalis) is listed as no less than 364 µM. For the same compound, the “antimicrobial activity, concentration below which no effect” value (Proteus mirabilis) was no less than 364 µM, the “response of K562 cells” value (K562) was “no response” and the IC50 [1] was 90 µM. For the same compound, the IC50 [2] was 180 µM, the “effect on mobilization (MF)” value (mobilization of RSF1010) was “unaffected” and the “response of Raji cells” value (Raji) was “no response”. For the same compound, the “inhibition of superoxide anion production” value [9] was “inhibitor of superoxide anion production”, the “antimicrobial activity, concentration below which no effect” value (Bacillus cereus) was no less than 364 µM and the “effect on mobilization (MF)” value (mobilization of ColE1; helper plasmid R388, pOX38 or R100-1) was “affected”. The “effect on mobilization (MF)” value (mobilization of ColE1; helper plasmid pRL443) was “unaffected”, the “response of U937 cells” value (U937) was “no response” and the IC90 (S. aureus CECT 794) was 120 µM. For the same compound, the IC50 [3] was 180 µM, the IC90 (M. smegmatis DSMZ 43756) was 120 µM and the IC90 (A. nidulans) was greater than 230 µM. The “antimicrobial activity, concentration below which no effect” value (C. albicans) was no less than 364 µM, the IC90 (C. albicans CECT 1394) was greater than 230 µM and the IC50 [4] was 90 µM. The inhibition of conjugation ([10]; 0.4 mM, IncW plasmid R388) was roughly 100 fold, the “R388 conjugation (relative CF)” value ([10]; 0.4 mM, plate-conjugation assay) was 2 ± 2% and the “effect on mobilization (MF)” value (mobilization of CloDF13) was “affected”. For the same compound, the inhibition of conjugation [12] was roughly 100 fold, the IC50 [5] was 180 µM and the “antimicrobial activity, concentration below which no effect” value (Klebsiella pneumoniae) was no less than 364 µM. For the same compound, the “response of Jurkat cells” value (Jurkat) was “no response”, the “R388 conjugation (relative CF)” value ([11]; 0.4 mM, relative to control without COINs (100%)) was 2% and the IC50 [11] was roughly 50 µM. It also gave an IC90 [8] greater than 100 µM.
For `CC1C=CC2CC(C)(O)CC(C)C2C1/C=C/C=C/C(=O)O` (centres unmarked) [TZA-E], the “inhibition of superoxide anion production” value [9] is given as “inhibitors of superoxide anion production” and the “COIN activity on R388 conjugation (CF)” value ([10]; plate-conjugation assay) is given as “did not show significant COIN activity”.
